This passage reports IC50 results from US8258098B2, “Antitumoral treatments” (Pharma Mar, S.A., priority 2006, dated 2012).

Experiment in all cases: MTS cytotoxicity assay, 72 hours, single agents and combinations with Aplidine
What all share (assay type): cell-based

For one assay, the system named is SKBR3 cells. The conditions noted are these: SKBR3, 72 hours drug exposure, read-out: IC50 (Molar). The method, then: (§1) Day before plating cells all cultures were fed with fresh, complete growth media. On the harvest (plating) day cells were counted by Trypan Blue exclusion staining method (basic cell culture). Cells were harvested and seeded in 96 well microtiter plates at 10,000 cells per well in 190 μL of media and incubated for 24 hours to allow the cells to attach before drug addition. Cells were treated with the drugs and the cytotoxic effect was measured by the MTS Assay (Tetrazolium), which is a colorimetric method for determining the number of viable cells. After the 72 hours of incubation with drug, 25 μL of MTS+PMS solution was added to each microtiter well and incubated for 4 hours at 37° C. Plates were then removed from incubator and placed on plate shaker for 5 minutes (covered with aluminium foil for protection from light). Optical densities were read at 490 nm on spectrophotometer plate reader.
(§2) The microtiter plates were incubated for 72 hrs, at 5% CO2 and 37° C. The cytotoxic effect was measured by MTS Assay. Optical densities read at 490 nm. Normalized data was plotted and interpreted as described. Data was analysed as: • 1. Prism (Graphpad) software program was used to normalized the data to control values (100%=cell growth in the absence of agent (drug); 0%=blank control). • 2. Data normalized were plotted as scatter plots.
(§3) Conversely, antagonism was concluded when inhibition was lower than both maxima. […] Statistical significance was assessed by performing a student's t-test on the inhibition at each dose ratio versus the inhibition at the maximum for each drug.
(§4) As a visual aid, response values were plotted on a scatter plot with dose ratios given on the x-axis and % response values on the y-axis. […] In cases where response values at the two endpoints were approximately equivalent, points lying above or below this predicted line of additivity could be interpreted as representing antagonistic or synergistic drug interaction, respectively.

A further assay relates to A549 cells. The conditions noted are these: A549, 72 hours drug exposure, read-out: IC50 (Molar). As to the method:
as §1, §2, §3, §4

Another assay concerns PC3 cells. Conditions: PC3, 72 hours drug exposure, read-out: IC50 (Molar). The method, then:
as §1, §2, §3, §4

The test system of the next assay is MOLT3 cells. Conditions: MOLT3, 72 hours drug exposure, read-out: IC50 (Molar). The method, then:
as §1, §2, §3, §4

The subject of a further assay is HL60 cells. The conditions noted are these: HL60, 72 hours drug exposure, read-out: IC50 (Molar). As to the method: as §1, §2, §3, §4
The next assay has as its system MX1 cells. The conditions noted are these: MX1, 72 hours drug exposure, read-out: IC50 (Molar). The method, then: as §1, §2, §3, §4
The next assay deals with HT29 cells. The conditions noted are these: HT29, 72 hours drug exposure, read-out: IC50 (Molar). The method, then: as §1, §2, §3, §4

Consider `N.N.O=C([O-])C1(C(=O)[O-])CCC1.[Pt+2]` [carboplatin], for which the concentration for half-maximal inhibition (IC50) with SKBR3 cells was 52 µM; in the assay with A549 cells, 310 µM; in the assay on PC3 cells, over 100 µM; in the assay with MOLT3 cells, 4 µM; in the assay on HL60 cells it was 56 µM; in the assay on MX1 cells it was over 100 µM. In the assay on HT29 cells, the IC50 came to 260 µM.

By IC50 is commonly meant the concentration at which inhibition is half-maximal.
